Measured values as given in patent US20250276994A1, “CAP ANALOG FOR THE 5'-END OF EUKARYOTIC MESSENGER RNAS” (WESTFÄLISCHE WILHELMS-UNIVERSITÄT, priority 2021, published 2025).

Experiments:
Reticulocyte Lysate = test: In vitro translation of capped FLuc-mRNA and luminescence measurement; format: biochemical; conditions: capped FLuc-mRNA
Description: In vitro translation was performed using a eukaryotic cell free protein expression kit from Reticulocyte Lysate (Invitrogen). Experiments were performed in 12.5 μL total volume containing 20 ng of the corresponding FLuc-mRNAs, 50 μM L-methionine and 150 mM potassium acetate. Samples were mixed with 8.5 μL of the reticulocyte lysate and incubated for 90 min at 30° C. Afterwards, 2 μL of the respective translation mix were used in subsequent luminescence measurement. The translation efficiency of the reporter mRNAs was assessed in a luciferase assay using Beetle-juice Luciferase Assay Firefly (pjk). Luciferase activity was determined by adding 50 μL freshly prepared substrate solution to the translation mixture. Luminescence was monitored using a Tecan Infinite® m1000pro microplate reader with an acquisition time of 3 s (duration of signal acquisition).
The photocleavable 5′-cap analog of formula (7) was used for in vitro transcription to make FLuc mRNA as described above. This was used for in vitro translation and Luminescence measurement as described above. The commercial non-modified cap analog denoted “m^7GpppG” (Jena Bioscience) was used as positive control. Samples were irradiated for 30 seconds. The ApppG capped mRNA, which is not recognized by the translation initiation factor served as negative control, which is substracted from the other samples as it represents background activity. The experiment was performed in quadruplicates. The FLuc-mRNA capped with the photocleavable 5′-cap analog of formula (7) is denoted “ONB”.
The in vitro translation assay and luminescence measurement was performed as described above using the photocleavable 5′-cap analog of formula (12). The capped mRNA was denoted “DMNB-m^7GpCH2ppG capped FLuc-mRNA”. Samples were irradiated for 30 seconds (365 nm) or 60 seconds (405 nm). The commercial non-modified cap analog denoted “m^7GpppG” (Jena Bioscience) was used as positive control and all other samples were normalized to it. The ApppG capped mRNA, which is not recognized by the translation initiation factor served as negative control, which is substracted from the other samples as it represents background activity. The experiment was performed in triplicates, except *DMNB-m7GpCH2ppG (365 nm) which was a single determination.
The in vitro translation assay in reticulocyte lysate and luminescence measurement was performed as described above using m^7GpppG capped FLuc-mRNA caged with the photocleavable 5′-cap analog of formulas (22) and (25) (denoted “DMNB m^7GpppG” and “NPOM m^7GpppG”). Samples were irradiated for 30 seconds at 365 nm. The ApppG capped mRNA, which is not recognized by the translation initiation factor served as negative control, which was substracted from the other samples as it represents background activity. The values were normalized to the non-irradiated sample with m^7GpppG capped mRNA (100%). The experiment was performed in triplicates.
The in vitro translation assay in reticulocyte lysate and luminescence measurement was performed as described above using m^7GpppG capped FLuc-mRNA with modified nucleotides m^5C and N^1methyl-pseudouridine caged with the photocleavable 5′-cap analog of formulas (22) and (25) (denoted “DMNB m^7GpppG mod” and “NPOM m^7GpppG mod”). Samples were irradiated for 30 seconds at 365 nm. The ApppG capped mRNA, which is not recognized by the translation initiation factor served as negative control, which was substracted from the other samples as it represents background activity. The values were normalized to the non-irradiated sample with m^7GpppG capped mRNA (100%). The experiment was performed in triplicates.

T7 RNA polymerase = molecular target: T1, T7 RNA polymerase (Escherichia phage T7, UniProt P00573); test: In vitro transcription of GLuc mRNA with cap analogs, gel analysis; format: biochemical
T1 construct: purchased Thermo Scientific
T1 sequence (P00573 whole entry): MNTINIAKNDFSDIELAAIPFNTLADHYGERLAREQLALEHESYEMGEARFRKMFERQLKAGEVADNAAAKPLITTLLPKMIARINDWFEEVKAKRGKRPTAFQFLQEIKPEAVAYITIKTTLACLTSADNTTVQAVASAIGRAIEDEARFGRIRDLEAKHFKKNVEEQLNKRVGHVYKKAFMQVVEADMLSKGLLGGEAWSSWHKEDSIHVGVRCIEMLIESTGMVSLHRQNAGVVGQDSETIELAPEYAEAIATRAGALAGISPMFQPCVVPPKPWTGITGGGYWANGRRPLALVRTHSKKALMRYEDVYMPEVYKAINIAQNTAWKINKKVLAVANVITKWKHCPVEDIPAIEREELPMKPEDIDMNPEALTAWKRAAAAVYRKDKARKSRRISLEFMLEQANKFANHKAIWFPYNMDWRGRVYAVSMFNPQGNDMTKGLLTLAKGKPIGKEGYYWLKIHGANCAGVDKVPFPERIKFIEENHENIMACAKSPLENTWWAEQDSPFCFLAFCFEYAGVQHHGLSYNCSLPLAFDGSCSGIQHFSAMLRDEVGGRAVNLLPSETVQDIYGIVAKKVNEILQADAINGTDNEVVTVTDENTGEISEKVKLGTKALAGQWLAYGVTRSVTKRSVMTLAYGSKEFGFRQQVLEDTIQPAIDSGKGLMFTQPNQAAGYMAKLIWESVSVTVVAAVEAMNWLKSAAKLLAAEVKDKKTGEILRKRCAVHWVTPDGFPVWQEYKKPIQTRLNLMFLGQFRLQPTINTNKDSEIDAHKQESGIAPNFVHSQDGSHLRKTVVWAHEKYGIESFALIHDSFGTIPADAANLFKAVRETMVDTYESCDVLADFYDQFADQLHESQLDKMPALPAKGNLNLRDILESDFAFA
Description: First, the DNA sequence coding for eGFP, Firefly luciferase (FLuc) or Gaussia luciferase (GLuc) mRNAs were amplified from pmRNA-vectors containing the respective sequence. After purification (NucleoSpin Gel and PCR Clean-up, Macherey-Nagel), the resulting linear dsDNA was used as template (200 ng) for in vitro T7 transcription performed in transcription buffer (40 mM Tris/HCl, 25 mM NaCl, 8 mM MgCl2, 2 mM spermidine(HCl)3) by adding either a A/C/UTP (0.5 mM) mix or a mix with modified nucleotides (A/m^5C/N^1-methylpseudo-UTP) (0.5 mM), GTP (0.25 mM), GpppG, m7GpppG, ApppG, DMNB or NPOM cap analog (1 mM), T7 RNA polymerase (50 U) (Thermo Scientific) and pyrophosphatase (0.1 U) (Thermo Scientific) for 4 h at 37° C. Remaining DNA template was digested in presence of 2 U DNase I for 1 h at 37° C. and then mRNAs were purified using the RNA Clean & Concentrator™-5 Kit (Zymo Research). To digest non-capped RNAs, 10 U of the RNA 5′-polyphosphatase (Epicentre) as well as the supplied reaction buffer were added to purified mRNAs. After an incubation period of 30 min at 37° C., 0.5 U of the 5′-3′ exoribonuclease XRN1 (NEB) and MgCl2 (5 mM) were added. The reaction mixture was incubated for 60 min at 37° C. Subsequently, capped mRNAs were purified using the RNA Clean & Concentrator™-5 Kit (Zymo Research).
The photocleavable 5′-cap analogs of formulas (12) and (18) were used for in vitro transcription of GLuc mRNA as described above and analysed via agarose gel electrophoresis.
“M” denotes Riboruler low range RNA ladder.

[1] = Irradiation of photocleavable 5′-cap analogs, LC-MS (triple quad); format: physicochemical; conditions: 30 seconds, 365 nm (3 W)
Description: For determination of mass spectra, HPLC—triple-quadrupole mass spectrometry system was used. The system consists of Agilent 1260 Infinity II with dual λ absorbance detector (G7114A) HPLC part and Agilent Ultivo mass spectrometer with JetStream ion source (type of ESI). Column which was used: Agilent Poroshell 120 EC-C18 (3.0×150/2.7 μm). The polar compounds were tested by LC method (eluent 20 mM NH40Ac buffer (pH=6)/CH3CN, gradient 0-30%, column temperature=20° C.).
Samples of the photocleavable 5′-cap analog of formula (22) were irradiated for 30 seconds with 365 nm (3 W).

COc1cc(COC(=O)Nc2nc3c(c(=O)[nH]2)[n+](C)cn3[C@@H]2O[C@H](COP(=O)(O)CP(=O)(O)OP(=O)(O)OC[C@H]3O[C@@H](n4cnc5c(=O)[nH]c(N)nc54)C(O)C3O)C(O)C2O)c([N+](=O)[O-])cc1OC (stereo partly shown) [compound 12, P1-(N^2-(4,5-Dimethoxy-2-nitrobenzyl)oxycarbonyl-7-methylguanosin-5′-yl)-P3-guanosin-5′-yl 1,2-methylenetriphosphate]
in vitro translation (luminescence) after irradiation (Reticulocyte Lysate; 30 seconds (365 nm) or 60 seconds (405 nm)): partially restored | in vitro translation (luminescence), non-irradiated (Reticulocyte Lysate; non-irradiated, normalized to m^7GpppG capped mRNA): successfully inhibited to a high degree | incorporation of cap analog into RNA (T7 RNA polymerase): incorporated into the RNA | uncaging of the cap after irradiation (LC-MS) [1]: partially uncaged
